SMILES strings stand for the structures. Where only a bound is given, the exact number is not on record here.

Experimental findings from ChEMBL document CHEMBL1128105, “Synthesis of new azino fused benzimidazolium salts. a new family of DNA intercalating agents. I” (Bioorg Med Chem Lett, 1995) are described below.

This assay concerns HT-29. Nature of the assay: In vitro inhibitory activity against colon carcinoma HT-29 cells after 72 hr using in-house program. Format: functional, cell-based. Particulars: Homo sapiens, HT-29, 72 h.
For the compound `CCOC(=O)Cn1c2ccccc2[n+]2nc3c(cc12)-c1cccc2cccc-3c12`, the response was half-maximal at 54 µM (EC50). With `Nn1c2ccccc2[n+]2nc3c(cc12)-c1cccc2cccc-3c12`, the response was half-maximal at 37 µM (EC50).

As to `NCCNC(=O)Cn1c2ccccc2[n+]2nc3c(cc12)-c1cccc2cccc-3c12`, the half-maximal effective concentration (EC50) (in general, the concentration giving half of the maximal effect) is over 100 µM. The compound `CCOC(=O)c1c2c(cc3n(Cc4ccccc4)c4ccccc4[n+]13)-c1cccc3cccc-2c13` registered an EC50 of 2.1 µM.

Take `COC(=O)c1ccc(Cn2c3ccccc3[n+]3nc4c(cc23)-c2cccc3cccc-4c23)cc1`: the EC50 turned out to be 24 µM. Compound `c1ccc(Cn2c3ccccc3[n+]3nc4c(c(-c5ccccc5)c23)-c2cccc3cccc-4c23)cc1` had an EC50 of 3.7 µM. In turn, `CCOC(=O)Cn1c2ccccc2[n+]2c(C(=O)OCC)c3c(cc12)-c1cccc2cccc-3c12` returned a half-maximal effective concentration (EC50) of 1.8 µM. Next, `Cn1c2ccccc2[n+]2nc3c(cc12)-c1cccc2cccc-3c12`: 3.7 µM. As to `c1ccc(Cn2c3ccccc3[n+]3nc4c(cc23)-c2cccc3cccc-4c23)cc1`, the EC50 turned out to be 1.5 µM.
